Reference: US11413329B2, “Cancer cell trap” (BOARD OF REGENTS, THE UNIVERSITY OF TEXAS SYSTEM, priority 2012, dated 2022)

Experiments:
[1] = In vivo release rate of chemotherapy drugs from hydrogel nanoparticle traps; settings: from EPO-loaded hydrogel nanoparticles
Experimental: (§1) The fabrication of temperature sensitive hydrogel nanoparticles is described in the recent publication (Cai T, Hu P, Sun M, Zhou J, Tsai Y-T, Baker D W, Tang L. Novel thermogelling dispersions of polymer nanoparticles for controlled protein release. Nanomedicine 8 (8): 1301-8, 2012). The nanoparticles were loaded with EPO (600 international units/1 ml) in the presence or absence of doxorubicine (300 μg/m1) and paclitaxel (30 mg/ml). For that, EPO (600 international units), doxorubicine (300 μg) or paclitaxel (30 mg) was mixed with 50 μg of hydrogel nanoparticles at room temperature. After implantation, the average in vivo release rates for doxorubicin and paclitaxel were measured at 10 μg/day and 1 mg/day, respectively.

[2] = tested on: PC3 cells; assay: Cancer cell killing at implant sites of EPO+doxorubicin-loaded particles; assay type: in vivo; settings: EPO+doxorubicin-loaded vs EPO-loaded particles, 1, 2, 4, and 7 days
Experimental: as §1
(§2) Further studies were carried out to determine whether the implantation of chemotherapy drug-loaded cancer cell traps can kill cancer cells at the implant sites. […] To quantify cell recruitment, tissue section images were taken using a Leica fluorescence microscope (Leica Microsystems Wetzlar GmbH, Wetzlar, Germany) equipped with a QImaging Retiga-EXi CCD camera (QImaging, Surrey, BC, Canada). The tissue section images at a magnification of 400× (viewing area 0.24 mm^2) were then used to quantify the cell numbers per view field by cell counter plugin of ImageJ processing program.

[3] = tested on: melanoma cells; assay: Cancer cell killing at implant sites of EPO+paclitaxel-loaded particles; assay type: in vivo, C57 mice; settings: EPO+paclitaxel-loaded vs EPO-loaded particles, 1, 2, 4, and 7 days
Experimental: as §1, §2

| average in vivo release rate ([1]; 300 μg/ml) | average in vivo release rate ([1]; 30 mg/ml) | Compound | numbers of recruited PC3 cells at implant [2] | numbers of recruited melanoma cells at implant [3] |
| --- | --- | --- | --- | --- |
| 10 µg/day | – | COc1cccc2c1C(=O)c1c(O)c3c(c(O)c1C2=O)C[C@@](O)(C(=O)CO)C[C@@H]3O[C@H]1C[C@H](N)[C@H](O)[C@H](C)O1 [doxorubicin] | substantially reduced | – |
| – | 1000 µg/day | CC(=O)O[C@H]1C(=O)[C@@]2(C)[C@H]([C@H](OC(=O)c3ccccc3)[C@]3(O)C[C@H](OC(=O)[C@H](O)[C@@H](NC(=O)c4ccccc4)c4ccccc4)C(C)=C1C3(C)C)[C@]1(OC(C)=O)CO[C@@H]1C[C@@H]2O [paclitaxel] | – | substantially reduced |
